Experimental data as given in patent US20210395239A1 (Hoffmann-La Roche Inc., priority 2018, published 2021).

Target: T1, hTLR9 (Homo sapiens, UniProt Q9NR96)
T1 sequence (Q9NR96 26-1032): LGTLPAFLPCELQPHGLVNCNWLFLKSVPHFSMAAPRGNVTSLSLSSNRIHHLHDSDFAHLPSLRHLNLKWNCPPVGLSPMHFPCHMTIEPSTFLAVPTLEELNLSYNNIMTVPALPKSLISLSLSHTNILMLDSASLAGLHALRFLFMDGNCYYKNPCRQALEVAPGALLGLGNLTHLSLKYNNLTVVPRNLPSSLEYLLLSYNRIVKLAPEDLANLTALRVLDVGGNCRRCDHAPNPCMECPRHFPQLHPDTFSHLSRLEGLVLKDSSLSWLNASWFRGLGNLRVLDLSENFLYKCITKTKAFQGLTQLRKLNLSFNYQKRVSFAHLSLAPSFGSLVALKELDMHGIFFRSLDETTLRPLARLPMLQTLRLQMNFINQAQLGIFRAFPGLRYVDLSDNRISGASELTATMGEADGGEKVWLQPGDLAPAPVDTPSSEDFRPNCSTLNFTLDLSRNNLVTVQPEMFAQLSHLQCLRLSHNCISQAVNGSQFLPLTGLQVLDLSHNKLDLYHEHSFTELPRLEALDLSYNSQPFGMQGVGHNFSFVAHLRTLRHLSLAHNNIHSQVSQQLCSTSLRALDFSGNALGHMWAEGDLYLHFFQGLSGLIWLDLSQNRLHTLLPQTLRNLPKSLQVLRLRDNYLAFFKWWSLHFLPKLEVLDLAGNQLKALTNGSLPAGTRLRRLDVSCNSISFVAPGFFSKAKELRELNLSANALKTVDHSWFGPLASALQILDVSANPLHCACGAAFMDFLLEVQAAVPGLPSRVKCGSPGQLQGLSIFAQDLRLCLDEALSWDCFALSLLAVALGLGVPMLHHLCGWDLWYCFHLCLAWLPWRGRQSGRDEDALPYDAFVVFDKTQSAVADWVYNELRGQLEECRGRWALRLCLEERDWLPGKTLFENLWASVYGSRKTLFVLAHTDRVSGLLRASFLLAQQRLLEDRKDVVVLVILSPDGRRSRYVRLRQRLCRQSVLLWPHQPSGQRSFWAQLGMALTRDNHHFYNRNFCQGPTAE
Assay: HEK293-Blue-hTLR-9 cells assay (SEAP reporter, ODN2006 stimulation)
Type: cell-based
Design: host or cells: HEK293 (HEK-Blue hTLR9)
Conditions: HEK293-Blue-hTLR9 cells, ODN2006, 20 hrs; read-out: HEK/hTLR9 IC50
In short: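 Antagonism read as lowered SEAP reporter absorbance (620–655 nm, QUANTI-Blue, 2 h, 37 °C) in supernatants. Before that, ODN2006-stimulated HEK293-Blue cells stably expressing human TLR9 were exposed to compound dilutions at 1% final DMSO for 20 h at 37 °C.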

SMILES | IC50
CO[C@@H]1CN(c2nc(C)cc(N3CCN(C[C@H]4CN(c5ccc(C#N)c6ncccc56)C[C@@H](C)O4)CC3)n2)C[C@@H]1N [Example 72, 5-[(2S,6R)-2-[[4-[2-[(3S,4R)-3-amino-4-methoxy-pyrrolidin-1-yl]-6-methyl-pyrimidin-4-yl]piperazin-1-yl]methyl]-6-methyl-morpholin-4-yl]quinoline-8-carbonitrile] | 46 nM
Cc1cc(N2CCN(C[C@H]3CN(c4ccc(C#N)c5ncccc45)C[C@@H](C)O3)CC2)nc(N2CCC(N)C(F)(F)C2)n1 (stereo partly drawn) [Example 86, 5-[(2S,6R)-2-[[4-[2-(4-amino-3,3-difluoro-1-piperidyl)-6-methyl-pyrimidin-4-yl]piperazin-1-yl]methyl]-6-methyl-morpholin-4-yl]quinoline-8-carbonitrile] | 189 nM
CO[C@H]1CN(c2nc(C)cc(N3CCN(C[C@H]4CN(c5ccc(C#N)c6ncccc56)C[C@@H](C)O4)CC3)n2)C[C@@H]1N (single isomer, unassigned) [Example 69A] | 54 nM
C[C@@H]1CN(c2ccc(C#N)c3ncccc23)C[C@H](CN2CCN(c3ccccc3C3CNCCO3)CC2)O1 (stereo partly drawn) [Example 89, 5-[(2R,6S)-2-methyl-6-[[4-(2-morpholin-2-ylphenyl)piperazin-1-yl]methyl]morpholin-4-yl]quinoline-8-carbonitrile] | 99 nM
CO[C@H]1CN(c2nc(C)cc(N3CCN(C[C@H]4CN(c5ccc(C#N)c6ncccc56)C[C@@H](C)O4)CC3)n2)CCC1N (stereo in doubt) [Example 90, 5-[(2S,6R)-2-[[4-[2-[(3S,4S)-4-amino-3-methoxy-1-piperidyl]-6-methyl-pyrimidin-4-yl]piperazin-1-yl]methyl]-6-methyl-morpholin-4-yl]quinoline-8-carbonitrile] | 54 nM
COC1CNCC1Nc1nc(C)cc(N2CCN(C[C@H]3CN(c4ccc(C#N)c5ncccc45)C[C@@H](C)O3)CC2)n1 (stereo in doubt) [Example 70, 5-[(2S,6R)-2-[[4-[2-[[(3R,4R)-4-methoxypyrrolidin-3-yl]amino]-6-methyl-pyrimidin-4-yl]piperazin-1-yl]methyl]-6-methyl-morpholin-4-yl]quinoline-8-carbonitrile] | 80 nM
Cc1cc(N2CCN(C[C@H]3CN(c4ccc(C#N)c5ncccc45)C[C@@H](C)O3)CC2)nc(N2CC[C@@H](N)[C@@H](F)C2)n1 [Example 78, 5-[(2S,6R)-2-[[4-[2-[(3S,4R)-4-amino-3-fluoro-1-piperidyl]-6-methyl-pyrimidin-4-yl]piperazin-1-yl]methyl]-6-methyl-morpholin-4-yl]quinoline-8-carbonitrile] | 65 nM
COC1CN(c2nc(C)cc(N3CCN(C[C@H]4CN(c5ccc(C#N)c6ncccc56)C[C@@H](C)O4)CC3)n2)CC1N (single isomer, unassigned) [Example 88] | 71 nM
Cc1cc(N2CCN(C[C@H]3CN(c4ccc(C#N)c5ncccc45)C[C@@H](C)O3)CC2)nc(N[C@@H]2CNC[C@H]2F)n1 [Example 76, 5-[(2S,6R)-2-[[4-[2-[[(3R,4R)-4-fluoropyrrolidin-3-yl]amino]-6-methyl-pyrimidin-4-yl]piperazin-1-yl]methyl]-6-methyl-morpholin-4-yl]quinoline-8-carbonitrile] | 50 nM
Cc1cc(N2CCN(C[C@H]3CN(c4ccc(C#N)c5ncccc45)C[C@@H](C)O3)CC2)nc(N[C@@H]2CNC[C@@H]2F)n1 [Example 71, 5-[(2S,6R)-2-[[4-[2-[[(3R,4S)-4-fluoropyrrolidin-3-yl]amino]-6-methyl-pyrimidin-4-yl]piperazin-1-yl]methyl]-6-methyl-morpholin-4-yl]quinoline-8-carbonitrile] | 66 nM
Cc1cc(N2CCN(C[C@H]3CN(c4ccc(C#N)c5ncccc45)C[C@@H](C)O3)CC2)nc(N2C[C@H](N)C[C@H](F)C2)n1 (relative stereo) [Example 74, 5-[(2R,6S)-2-methyl-6-[[4-[6-methyl-2-[cis-3-amino-5-fluoro-1-piperidyl]pyrimidin-4-yl]piperazin-1-yl]methyl]morpholin-4-yl]quinoline-8-carbonitrile] | 72 nM
CO[C@@H]1CN(c2nc(C)cc(N3CCN(C[C@H]4CN(c5ccc(C#N)c6ncccc56)C[C@@H](C)O4)CC3)n2)C[C@H]1N (single isomer, unassigned) [Example 69B] | 70 nM
Cc1cc(N2CCN(C[C@H]3CN(c4ccc(C#N)c5ncccc45)C[C@@H](C)O3)CC2)nc(N2CC[C@@H](N)C(F)C2)n1 (stereo in doubt) [Example 82, 5-[(2S,6R)-2-[[4-[2-[(3R,4R)-4-amino-3-fluoro-1-piperidyl]-6-methyl-pyrimidin-4-yl]piperazin-1-yl]methyl]-6-methyl-morpholin-4-yl]quinoline-8-carbonitrile] | 56 nM
Cc1cc(N2CCN(C[C@H]3CN(c4ccc(C#N)c5ncccc45)C[C@@H](C)O3)CC2)nc(N2CC[C@@H](F)[C@@H](N)C2)n1 [Example 83, 5-[(2R,6S)-2-methyl-6-[[4-[6-methyl-2-[(3S,4R)-3-amino-4-fluoro-1-piperidyl]-pyrimidin-4-yl]piperazin-1-yl]methyl]morpholin-4-yl]quinoline-8-carbonitrile] | 96 nM
Cc1cc(N2CCN(C[C@H]3CN(c4ccc(C#N)c5ncccc45)C[C@@H](C)O3)CC2)nc(N2CC(N)C2)n1 [Example 87, 5-[(2S,6R)-2-[[4-[2-(3-aminoazetidin-1-yl)-6-methyl-pyrimidin-4-yl]piperazin-1-yl]methyl]-6-methyl-morpholin-4-yl]quinoline-8-carbonitrile] | 75 nM
Cc1cc(N2CCN(C[C@H]3CN(c4ccc(C#N)c5ncccc45)C[C@@H](C)O3)CC2)nc(N2C[C@H](N)C[C@@H](F)C2)n1 (relative stereo) [Example 75, 5-[(2R,6S)-2-methyl-6-[[4-[6-methyl-2-[trans-3-amino-5-fluoro-1-piperidyl]pyrimidin-4-yl]piperazin-1-yl]methyl]morpholin-4-yl]quinoline-8-carbonitrile] | 57 nM
Cc1cc(N2CCN(C[C@H]3CN(c4ccc(C#N)c5ncccc45)C[C@@H](C)O3)CC2)nc(N2C[C@@H](N)[C@H](F)C2)n1 [Example 79, 5-[(2S,6R)-2-[[4-[2-[(3R,4R)-3-amino-4-fluoro-pyrrolidin-1-yl]-6-methyl-pyrimidin-4-yl]piperazin-1-yl]methyl]-6-methyl-morpholin-4-yl]quinoline-8-carbonitrile] | 63 nM
Cc1cc(N2CCN(C[C@H]3CN(c4ccc(C#N)c5ncccc45)C[C@@H](C)O3)CC2)nc(N2CC[C@@H](F)C(N)C2)n1 (single isomer, unassigned) [Example 84] | 104 nM
Cc1cc(N2CCN(C[C@H]3CN(c4ccc(C#N)c5ncccc45)C[C@@H](C)O3)CC2)nc(N2C[C@@H](N)C[C@@H](F)C2)n1 [Example 77, 5-[(2S,6R)-2-[[4-[2-[(3S,5R)-3-amino-5-fluoro-1-piperidyl]-6-methyl-pyrimidin-4-yl]piperazin-1-yl]methyl]-6-methyl-morpholin-4-yl]quinoline-8-carbonitrile] | 56 nM
Cc1cc(N2CCN(C[C@H]3CN(c4ccc(C#N)c5ncccc45)C[C@@H](C)O3)CC2)nc(NC2CNCC2F)n1 (stereo in doubt) [Example 73, 5-[(2S,6R)-2-[[4-[2-[[(3S,4R)-4-fluoropyrrolidin-3-yl]amino]-6-methyl-pyrimidin-4-yl]piperazin-1-yl]methyl]-6-methyl-morpholin-4-yl]quinoline-8-carbonitrile] | 69 nM
Cc1cc(N2CCN(C[C@H]3CN(c4ccc(C#N)c5ncccc45)C[C@@H](C)O3)CC2)nc(N2CC(N)CC(F)(F)C2)n1 (stereo partly drawn) [Example 80, 5-[(2S,6R)-2-[[4-[2-(5-amino-3,3-difluoro-1-piperidyl)-6-methyl-pyrimidin-4-yl]piperazin-1-yl]methyl]-6-methyl-morpholin-4-yl]quinoline-8-carbonitrile] | 120 nM
Cc1cc(N2CCN(C[C@H]3CN(c4ccc(C#N)c5ncccc45)C[C@@H](C)O3)CC2)nc(N2CCNC(C(C)(C)O)C2)n1 (stereo partly drawn) [Example 81, 5-[(2S,6R)-2-[[4-[2-[3-(1-hydroxy-1-methyl-ethyl)piperazin-1-yl]-6-methyl-pyrimidin-4-yl]piperazin-1-yl]methyl]-6-methyl-morpholin-4-yl]quinoline-8-carbonitrile] | 46 nM
